Experiments:
Siglec-2 = details: cited from earlier work
Siglec-2 Fc chimeras = target: T1, Siglec-2 Fc chimeras (Homo sapiens, UniProt P20273); test: Surface Plasmon Resonance (SPR) assay; format: binding
T1 construct: the three N-terminal Ig-domains of Siglec-2 were fused to the C-terminal human IgG1 Fc domain; made in house; host or cells: CHO-Lec1
Description: Recombinant Siglec-2 (CD22) Fc-chimeras were expressed in CHO-Lec1 and protein purification was performed as described. The recombinant Siglec-2-Fc chimera, in which the three N-terminal Ig-domains of Siglec-2 were fused to the C-terminal human IgG1 Fc domain, was expressed in CHO-Lec1 cells.
Siglec-Fc chimeras were either captured to anti-Fc antibody-derivatised dextran surface of a Reichert SR7500DC flow cell or directly immobilized by amide coupling. N-acetylneuraminic acid derivatives at various concentrations in PBS were passed over the flow cell at a flow rate of 20 μL/min followed by buffer for dissociation. Specific binding was determined by subtracting the signal obtained from the reference cell (ethanolamine derivatised dextran surface) from the sample cell derivatised with Siglec-2 Fc chimeras. The data were analysed and fitted using the software Scrubber (BioLogic). Corresponding sensorgrams for 7 and 8 are shown in Supplementary Figure 2a,b, respectively.

[1] = system: T2, Siglec-2 transiently expressed on HEK293T cells; test: STD NMR binding to untransfected and Siglec-2 transfected HEK293T cells; parameters: species or system human
T2 construct: host or cells: HEK293T
Description: (§1) STD NMR spectra were performed using a Bruker Advance 600 MHz spectrometer, equipped with a 5-mm TXI probe with triple axis gradients at 283 K. 5 × 10^5 BL Daudi and 1 × 10^6 HEK293T cells were washed three times with the optimised deuterated NMR buffer by centrifugation at 1,300 rpm, at room temperature for 5 min and resuspending in 200 μL. The ligand concentration was adjusted to 0.5 mM for all experiments. To determine the binding epitope of the ligands when bound to cells STDD (Saturation Transfer Double Difference) spectra were generated by subtracting STD NMR signals from the ligand-cell complex from the spectrum obtained in the absence of cells or protein.
The full-length codon-optimized coding sequence of Siglec-2 (Uniprot entry P20273-1) cloned in plasmid pD2517 was purchased from DNA2.0 (Menlo Park, CA, USA). Plasmid amplification was performed by transformation into chemically competent E. coli NEB 5-alpha (Ipswich, MA, USA) followed by purification using a NucleoBond XTRA EF Plasmid Purification Kit (Machery Nagel, Duren, Germany, EU). […] Transfection efficiency was monitored by flow cytometry analysis 24 and 48 h post-transfection. […]

[2] = system: T3, Siglec-2 expressed on intact Burkitt's lymphoma (BL) Daudi cells; test: STD NMR binding to intact BL Daudi cells; parameters: species or system human; details: for STD NMR signals in the presence of BL Daudi cells: 0.5 mM ligand, 5.0 × 10^5 BL Daudi cells, 283 K
T3 construct: host or cells: BL Daudi cells
From the text: Anti-human Siglec-1 (CD169)-FITC, (clone: 7-239); Siglec-3 (CD33)-FITC, (clone: AC104.3E3); Siglec-5 (CD170)-FITC (clone: 1A5); Siglec-7 (CD328)-VioBlue, (clone: REA214); Siglec-8-FITC, (clone: 7C9) and relevant isotype controls were purchased from Miltenyi Biotech (Bergisch Gladbach, Germany, UE). Mouse anti-human Siglec-2 (CD22) primary antibody (clone RFB4) and the relevant isotype control (clone 1E2.2) were purchased from Merck Group (Darmstadt, Germany, UE). The rat anti-mouse secondary antibody BV421 conjugated was purchased from BD Biosciences (San Jose, CA, USA). Rabbit anti-human Siglec-4 (Myelin Associated Glycoprotein, MAG) was purchased from LifeSpan BioSciences (Seattle, WA, USA). The Donkey anti-rabbit secondary antibody (Clone Poly4064)-BV421 conjugated was purchased from Biolegend (San Diego, CA, USA). Anti-human Siglec-5/Siglec-14-APC (Clone 194128), Siglec-6 (CD327)-APC (Clone 767329), Siglec-9-FITC (Clone 191240); Goat Siglec-10-PE Affinity Purified PAb, Goat Siglec-11-PE Affinity Purified PAb, Goat IgG-PE control, Siglec-16-APC (Clone 706022), and relevant isotypes were purchased from R&D Systems (Minneapolis, MN, USA). BL Daudi and HEK293T cells were incubated with the antibodies for one hour at 4 °C in PBS supplemented with 1% FCS (PBS-FBS) at a ratio of 1 μg of antibody per 1 × 10^6 cells. The cells were washed three times and then suspended in 1 mL of PBS-FBS buffer prior to flow cytometry analysis. Propidium iodide was used at a concentration of 10 ug/mL to differentiate viable from non-viable cells. Secondary antibodies were used according to the suppliers’ instructions. A CyAn ADP Flow Cytometer and Kaluza Flow Cytometry software were used for flow cytometric analysis (Beckman Coulter, Brea, CA, USA). For sorting the BL Daudi cells into Siglec-2^low and Siglec-2^high fractions, antibody staining was achieved as described above. RPMI-1640 medium containing 50% v/v FBS was used for collecting sorted cells to minimise cell damage. Cells were sorted into low and high expressing Siglec-2 groups based on their fluorescence intensity, using MoFlo XDP (Beckman Coulter, CA, USA).
as §1
Mild periodate treatment to disrupt cis-binding was performed following published procedures. BL Daudi cells were resuspended in phosphate buffer (pH 7.4) containing freshly dissolved 2 mM NaIO4 and incubated at 4 °C in the dark. After 30 min, the excess of periodate was quenched by adding 10 μL of 20% deuterated glycerol followed by immediate washing with deuterated buffer optimised for cell NMR experiments. The STD NMR on-resonance frequency was set to −1.00 ppm and the off-resonance to 300 ppm. To ensure the viability of the cells during NMR acquisition 256 scans were chosen resulting in a total acquisition time of 53 min.

[3] = parameters: method as in PMID 10589082; details: patients treated with Rituximab; cited from earlier work

T1 sequence (P20273 with tags, fused parts or gaps limits assumed): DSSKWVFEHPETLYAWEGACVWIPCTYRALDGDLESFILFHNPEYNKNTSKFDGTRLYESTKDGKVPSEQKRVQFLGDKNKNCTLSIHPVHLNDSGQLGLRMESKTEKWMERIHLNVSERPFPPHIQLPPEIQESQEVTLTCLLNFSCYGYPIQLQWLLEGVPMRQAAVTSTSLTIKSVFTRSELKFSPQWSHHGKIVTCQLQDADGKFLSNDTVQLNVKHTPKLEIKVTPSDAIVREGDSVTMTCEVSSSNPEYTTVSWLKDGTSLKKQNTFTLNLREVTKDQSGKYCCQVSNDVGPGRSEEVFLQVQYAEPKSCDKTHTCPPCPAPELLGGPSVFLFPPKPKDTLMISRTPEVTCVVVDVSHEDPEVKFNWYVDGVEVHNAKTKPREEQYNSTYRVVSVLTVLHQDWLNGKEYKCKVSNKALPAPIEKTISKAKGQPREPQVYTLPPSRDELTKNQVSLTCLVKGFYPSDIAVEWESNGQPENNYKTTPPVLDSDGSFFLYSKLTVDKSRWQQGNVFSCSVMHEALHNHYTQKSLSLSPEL

For COC1(C(=O)O)CC(O)C(NC(C)=O)C(C(O)C(O)CO)O1 (stereo not drawn) [compound 1, Neu5Acα2Me], the IC50 (Siglec-2; read-out: IC50 value (binding potency for Siglec-2)) is listed as 1400 µM.
For COC1(C(=O)O)CC(O)C(NC(C)=O)C(C(O)C(O)CNC(=O)c2ccc(-c3ccccc3)cc2)O1 (stereo not drawn) [compound 2, 9-BPC-Neu5Acα2Me, reference compound], the “increase of overall potency by a factor” value (Siglec-2; relative to Neu5Acα2Me (1)) is listed as 224 and the Kd (Siglec-2 Fc chimeras) is listed as 4.34 µM.
In the case of COC1(C(=O)O)CC(NC(=O)c2cccc([N+](=O)[O-])c2)C(NC(C)=O)C(C(O)C(O)CNC(=O)c2ccc(-c3ccccc3)cc2)O1 (stereo not drawn) [compound 3, 9-biphenylcarboxamido-4-meta-nitrophenyl-carboxamido-Neu5Acα2Me], the “fold higher affinity than 9-BPC-Neu5Acα2Me (2)” value (Siglec-2; relative to 2) is listed as 15 fold, the “increase in STD NMR signal intensity, Siglec-2 transfected versus untransfected HEK293T cells” value ([1]; 1.0 × 10^6 cells, 283 K) is listed as 75 fold and the “STD NMR signal intensity with non-transfected HEK293T cells” value ([1]; 1.0 × 10^6 untransfected cells) is listed as “Very low signal intensity”. For the same compound, the Kd (Siglec-2 Fc chimeras) was 0.66 µM, the “STD NMR signals in the presence of BL Daudi cells” value (“STD NMR signals in the presence” below) [2] was “strong and significant signals” and the “increase in absolute STD NMR signal intensity, Siglec-2^high versus Siglec-2^low BL Daudi cells” value ([2]; N-acetyl methyl protons, 5.0 × 10^5 sorted cells) was 46%. The “change in STD NMR signal intensities with periodate pretreated BL Daudi cells” value ([2]; cells pre-treated with 2 mM NaIO4, versus untreated cells) was “significant increase”.
In the case of CC(=O)N[C@@H]1[C@@H](NC(=O)c2cccc([N+](=O)[O-])c2)[C@H](O)[C@](OCc2cn(CC(=O)O)nn2)(C(=O)O)O[C@H]1[C@H](O)[C@H](O)CNC(=O)c1ccc(-c2ccccc2)cc1 [compound 7], the Kd (Siglec-2 Fc chimeras) is reported as 0.182 µM and the “STD NMR signals in the presence” value [2] is reported as “strong STD NMR signals”.
Work on COc1cccc(C(=O)N[C@@H]2[C@@H](NC(C)=O)[C@H]([C@H](O)[C@H](O)CNC(=O)c3ccc(-c4ccccc4)cc3)O[C@@](OCc3cn(CC(=O)O)nn3)(C(=O)O)[C@H]2O)c1 [compound 8, 9-BPC-2-(4-carboxymethyl-[1,2,3]triazol-1-yl)-3-hydroxy-4-meta-methoxyphenyl-carboxamido-Neu5Acα2Me] yielded a Kd (Siglec-2 Fc chimeras) of 0.175 µM.
With OC[C@H]1O[C@@](CO)(O[C@H]2O[C@H](CO)[C@@H](O)[C@H](O)[C@H]2O)[C@@H](O)[C@@H]1O [sucrose, reference compound] the “STD NMR signals in the presence” value [2] was “no STD NMR signals can be detected”.
For Rituximab: anti-CD20 antibody, the “patients suffering from severe side effects” value [3] is listed as 80%.

Reference: PMC5093622, “Structural characterisation of high affinity Siglec-2 (CD22) ligands in complex with whole Burkitt’s lymphoma (BL) Daudi cells by NMR spectroscopy” (Scientific Reports, 2016)
